Results: patent US8604016B2, “Heterocyclic inhibitors of glutaminase” (Calithera Biosciences Inc., priority 2011, dated 2013)
Converted amounts (≈) assume the structure as drawn. Where two headings read alike, the source gives them in different places.

What was measured:
P493-6 (myc "on") cells = test: Cell Proliferation Assay (72 hrs, Cell Titer Glo or Viacount FACS); format: cell-based
Experimental: P493-6 (myc “on”) cells were maintained in growth media (RPMI-1640, 10% FBS, 2 mM glutamine, 100 units/ml Penicillin and 100 μg/ml streptomycin) at 37° C. with 5% CO2. For compound assay, P493-6 cells were plated in 96-well V-bottom plates on the day of compound addition in 50 μl of growth media at a cell density of 200,000 cells/ml (10,000 cells/well). Compounds were serially diluted in 100% DMSO at 200-times the final concentration. Compounds were diluted 100-fold into growth media and then 50 μl of this mixture was added to cell plates making the final concentration of DMSO 0.5%. Cells were incubated with compound for 72 hrs at 37° C. with 5% CO2 and analyzed for antiproliferative effects either by Cell Titer Glo (Promega) or FACS analysis using the Viacount (Millipore) kit on the Guava instrument.

[1] = molecular target: recombinant form of Glutaminase 1 (GAC) (Homo sapiens, UniProt O94925); test: Recombinant Enzyme Assay (GAC coupled to GDH, NADH absorbance, no preincubation); format: biochemical; details: no preincubation; read-out: GAC Delta N2 IC50 no preinc
In short: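 GAC (4 nM) in Tris-HCl pH 8.0 with 150 mM K2HPO4, EDTA, BSA, DTT, plus 4 units/ml GDH and 4 mM ADP, without preincubation. Absorbance at 340 nm was read kinetically for 15 min at 20° C. Slopes (mAU/min) were compared with DMSO-only and control-compound wells on the same plate.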

[2] = Solubility (18 hr vortex mixing at room temperature, filtration, HPLC); format: physicochemical; details: thermodynamic from solid
Experimental: Ca. 1 mg portions of test article were combined with 120 μL solvent in wells of a 96×2 mL polypropylene plate. […] The contents of all wells were then filtered through a 0.45 μm GHP filter plate to yield clear filtrates. 5 μL of each filtrate was diluted into 100 μL DMF and vortex mixed to yield HPLC samples. Duplicate quantitation standards for each test article were prepared by diluting weighed portions of solid test article in measured volumes of DMF. 2 μL of each HPLC sample and quantitation standard were analyzed by HPLC using the method outlined in Table 5. Dissolved test article concentrations were calculated by peak area ratio against the appropriate quantitation standards.

[3] = Caco-2 Permeability Assay (bidirectional); format: in vitro ADME; details: human
Source text: (§1) Caco-2 cells are commonly used in a confluent monolayer on a cell culture insert filter. When cultured in this format and under specific conditions, the cells become differentiated and polarized such that their phenotype, morphologically and functionally resembles the enterocytes lining the small intestine. The cell monolayer provides a physical and biochemical barrier to the passage of small molecules, and is widely used across the pharmaceutical industry as an in vitro model of the human small intestinal mucosa to predict the absorption of orally administered drugs (Hidalgo et al., Gastroenterology, 1989; Artursson, J. Pharm. Sci., 1990). The correlation between the in vitro apparent permeability (P ? app) across Caco-2 monolayers and the in vivo absorption is well established (Artursson et al., Biochem. Biophys. Res. Comm., 1991).
(§2) The present assay was used to determine the bidirectional permeability of the compounds of the invention through Caco-2 cell monolayers. Caco-2 cells were grown in confluent monolayers where the media of both the apical (A) and basolateral (B) sides were at pH 7.4. Compounds were dosed at 1 μM in the presence of 200 μM Lucifer Yellow, on the apical side (A→B) or the basolateral side (B→A) for assessment, in duplicate.
(§3) The absorption potential of compounds were classified as either Low (P-app <1×10^−6 cm/s) or High (P-app >1×10^−6 cm/s).

Caco-2 cell monolayers = test: Caco-2 Permeability Assay (bidirectional); format: in vitro ADME
Source text: as §1, §2, §3

[4] = read-out: Cell prolif P493 72h IC50, P493-6 cells, 72 h

`O=C(Nc1nnc(CCCCc2nnc(NC(=O)C3COc4ccccc43)s2)s1)C1COc2ccccc21` (stereo not shown) [Compound 135] gave an IC50 (P493-6 (myc "on") cells; [4]) of 0.49 µM.
`CC(C)(C)OC(=O)Nc1ccc(CC(=O)Cc2nnc(CCCCc3nnc(NC(=O)Cc4ccc(NC(=O)OC(C)(C)C)cc4)s3)s2)cc1` [Compound 192] showed an IC50 [1] of over 20 µM and an IC50 (P493-6 (myc "on") cells; P493-6, 72 h, read-out: Cell prolif P493 72h IC50, P493-6 cells, 72 h) of 0.03 µM.
In the case of `O=C(Cc1cccc(CN2CCNCC2)c1)Nc1nnc(CCCCc2nnc(NC(=O)Cc3cccc(CN4CCNCC4)c3)s2)s1` [Compound 276], the IC50 (P493-6 (myc "on") cells; [4]) is reported as 56 µM.
For `O=C(Cc1ccccc1)Nc1ccc(CCCCc2nnc(NC(=O)Cc3ccccc3)s2)nn1` [Compound 295], the solubility at 18 h ([2]; 50 mM citrate buffer pH 2.3, 20 °C, aqueous buffer, 50 mM Cit pH 2.3, room temperature) was under 2 µg/mL, the solubility at 18 h ([2]; 50 mM citrate buffer pH 3.3, 20 °C, aqueous buffer, 50 mM Cit pH 3.3, room temperature) was under 2 µg/mL and the solubility at 18 h ([2]; 50 mM citrate buffer pH 4.4, 20 °C, aqueous buffer, 50 mM Cit pH 4.4, room temperature) was under 2 µg/mL. For the same molecule, the solubility at 18 h ([2]; 50 mM citrate buffer pH 5.4, 20 °C, aqueous buffer, 50 mM Cit pH 5.4, room temperature) was under 2 µg/mL, the solubility at 18 h ([2]; 20 °C, aqueous buffer, PBS, room temperature) was under 2 µg/mL and the solubility at 18 h ([2]; 20 °C, aqueous with cosolvent or surfactant or cyclodextrin, 10% CrEL/50 mM cit, room temperature) was 55 µg/mL (≈ 113 µM). For the same molecule, the solubility at 18 h ([2]; 20 °C, aqueous with cosolvent or surfactant or cyclodextrin, 10% PS80/50 mM cit, room temperature) was 27 µg/mL (≈ 55.5 µM), the solubility at 18 h ([2]; 20 °C, aqueous with cosolvent or surfactant or cyclodextrin, 20% HPBCD/50 mM cit, room temperature) was 167 µg/mL (≈ 343 µM) and the solubility at 18 h ([2]; 20 °C, aqueous with cosolvent or surfactant or cyclodextrin, 20% SBECD/50 mM cit, room temperature) was 90 µg/mL (≈ 185 µM). The solubility at 18 h ([2]; 20 °C, oil or lipid, Capryol 90, room temperature) was 215 µg/mL (≈ 442 µM), the solubility at 18 h ([2]; 20 °C, oil or lipid, Capryol PGMC, room temperature) was 1540 µg/mL (≈ 3160 µM) and the solubility at 18 h ([2]; 20 °C, oil or lipid, Labrasol, room temperature) was 918 µg/mL (≈ 1890 µM). The solubility at 18 h ([2]; 20 °C, oil or lipid, canola oil, room temperature) was under 2 µg/mL, the solubility at 18 h ([2]; 20 °C, organic solvent or mixture, EtOH, room temperature) was 83 µg/mL (≈ 171 µM) and the solubility at 18 h ([2]; 20 °C, organic solvent or mixture, PEG400, room temperature) was 1640 µg/mL (≈ 3380 µM). The solubility at 18 h ([2]; 20 °C, organic solvent or mixture, PG, room temperature) was 234 µg/mL (≈ 481 µM), the solubility at 18 h ([2]; 20 °C, pH 1, simulated gastric fluid, 0.1M HCl, room temperature) was 3 µg/mL (≈ 6.17 µM) and the solubility at 18 h ([2]; 20 °C, pH 13, aqueous buffer, 0.1M NaOH, room temperature) was 268 µg/mL (≈ 551 µM). It also gave a solubility at 18 h ([2]; 20 °C, saline or isotonic, 0.9% NaCl, room temperature) of under 2 µg/mL, a solubility at 18 h ([2]; water, room temperature (ca. 20 C)) of under 2 µg/mL and a recovery at 120 min, 1 μM ([3]; Caco-2, pH 7.4, Direction A→B, 1 μM, 120 minutes, pH 7.4) of 89%. The recovery at 120 min, 1 μM ([3]; Caco-2, pH 7.4, Direction B→A, 1 μM, 120 minutes, pH 7.4) was 96%, the efflux ratio at 120 min, 1 µM ([3]; Caco-2, (Papp B→A)/(Papp A→B)) was 7.3 and the Papp A→B at 120 min, 1 μM ([3]; Caco-2, Direction A→B, 1 μM, 120 minutes, pH 7.4, unit not given (thresholds in 10^−6 cm/s)) was 8.17 ×10⁻⁶ cm/s. The Papp B→A at 120 min, 1 μM ([3]; Caco-2, Direction B→A, 1 μM, 120 minutes, pH 7.4, unit not given (thresholds in 10^−6 cm/s)) was 59.8 ×10⁻⁶ cm/s, the permeability class (Low/High absorption potential) at 120 min, 1 µM ([3]; Caco-2, absorption potential, read-out: Permeability Classification) was over 1 ×10⁻⁶ cm/s and the “Significant Efflux” value (Caco-2 cell monolayers) was “Yes (efflux ratios being significant when greater than or equal to 3 when the Papp (B→A) was greater than or equal to 1×10^−6 cm/s)”.
